Columns and labels:
[1] = T1-weighted MRI of supernatants with released Mn2+ ions (R1, r1); assay type: physicochemical; details: MnCl2 aqueous solution
Source text: The contrast signal intensity of the photographed image was digitized (R1, unit=[…]), and shown in the graph of FIG. 9b. It is inferred that the released Mn^2+ ions can increase the contrast effect in T1-weighted image, on the basis that FIG. 9b is almost consistent with the graph of the release rate of Mn^2+ ions for each particle shown in FIG. 8e.
Next, the relationship between the concentration of Mn^2+ ions and the contrast intensity R1 of the image is shown in the graph of FIG. 9c. The slope of this graph is expressed as r1, and is a unique value for each material.

[2] = T1 relaxation / T1-weighted image of HMS suspensions (3.0-T MR scanner); assay type: physicochemical; details: comparison value for free Mn2+
Protocol: The release profile of manganese ions from HMS was quantified at room temperature using 8 mg of HMS suspensions in 16 ml of citrate buffer at pH 5 and pH 6.2 and distilled water. 4 ml of each HMS suspensions was collected from samples at 15 minutes, 1 hour, 7 hours and 20 hours, and the nanoparticles (NPs) of the sample were removed by centrifugation at 15,000 rpm for 10 minutes, and each supernatant was filtered by using syringe filter with […] of pore size. The amount of each released manganese ion and the T1 relaxation time of the proton in each supernatant were quantified using ICP-AES and a 3.0-T clinical MR scanner (Philips, Achieva ver. 1.2, Philips Medical Systems, Best, The Netherlands).
The Mn release property and T1 contrast enhancing property of HMS prepared in Example 1-2 were tested according to Example 1-3.

**Q.** Which results are given for [Cl][Mn][Cl] [MnCl2]?
**A.** r1 value for pure Mn^2+ ions [1]: about 7.4; r1 value of free manganese ions [2]: 7.8 s⁻¹ mM⁻¹

Source: patent publication US20210106698A1, “LIVER-SPECIFIC MRI CONTRAST AGENT INCLUDING MANGANESE SILICATE NANOPARTICLES” (POSTECH ACADEMY-INDUSTRY FOUNDATION, priority 2017, published 2021)
